# Data taken from patent publication US9179678B2, “Substituted [1,2,4]triazoles and substituted tetrazoles as herbicides” (SYNGENTA LIMITED, priority 2012, dated 2015).
# Key:
# Type in all cases: in vivo
# [1] = system: Alopecurus myosuroides (ALOMY); assay: Post-emergence glasshouse herbicide test; conditions: POST Application, after 13 days
# Procedure, shortened: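 In this glasshouse post-emergence test, ALOMY plants were cultivated in standard soil for 8 days under controlled conditions (24/16° C. day/night, 14 hours light, 65% humidity). They were then treated with a spray derived from an acetone/water (50:50) formulation with 0.5% Tween 20, grown on with watering twice daily, and rated for percentage damage after 13 days.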
# Solanum nigrum (SOLNI) [2] = assay: Post-emergence glasshouse herbicide test; conditions: POST Application, after 13 days
# Procedure, shortened: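 This glasshouse post-emergence herbicide test used Solanum nigrum plants sown in standard soil and cultivated for 8 days under controlled conditions (24/16° C. day/night, 14 hours light, 65% humidity). An aqueous spray from an acetone/water (50:50) solution with 0.5% Tween 20 was applied. Plants were watered twice daily, and damage to each plant was assessed as a percentage 13 days later.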
# Setaria faberi (SETFA) [3] = assay: Post-emergence glasshouse herbicide test; conditions: POST Application, after 13 days
# Procedure, shortened: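 This post-emergence glasshouse herbicide test used SETFA plants raised in pots of standard soil for 8 days under controlled conditions (24/16° C., 14 hours light, 65% humidity). An aqueous spray made from acetone/water (50:50) with 0.5% Tween 20 was applied. Plants were watered twice daily, and percentage plant damage was assessed 13 days later.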
# [4] = system: Alopecurus myosuroides (ALOMY); assay: Pre-emergence glasshouse herbicide test; conditions: PRE Application, after 13 days
# Procedure, shortened: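 This pre-emergence glasshouse test used pots of standard soil sown with ALOMY seed and cultivated for one day under controlled conditions of 24/16° C., 14 hours light and 65% humidity. An aqueous spray from an acetone/water (50:50) formulation with 0.5% Tween 20 was applied. After 13 days of further growth with twice-daily watering, plant damage was rated as a percentage.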
# [5] = system: Amaranthus retoflexus (AMARE); assay: Post-emergence glasshouse herbicide test; conditions: POST Application, after 13 days
# [6] = system: Echinochloa crus-galli (ECHCG); assay: Post-emergence glasshouse herbicide test; conditions: POST Application, after 13 days
# [7] = system: Ipomoea hederacea (IPOHE); assay: Post-emergence glasshouse herbicide test; conditions: POST Application, after 13 days
# Solanum nigrum (SOLNI) [8] = assay: Pre-emergence glasshouse herbicide test; conditions: PRE Application, after 13 days
# [9] = system: Amaranthus retoflexus (AMARE); assay: Pre-emergence glasshouse herbicide test; conditions: PRE Application, after 13 days
# Setaria faberi (SETFA) [10] = assay: Pre-emergence glasshouse herbicide test; conditions: PRE Application, after 13 days
# [11] = system: Echinochloa crus-galli (ECHCG); assay: Pre-emergence glasshouse herbicide test; conditions: PRE Application, after 13 days
# [12] = system: Ipomoea hederacea (IPOHE); assay: Pre-emergence glasshouse herbicide test; conditions: PRE Application, after 13 days
# [13] = system: Amaranthus retoflexus (AMARE); assay: Post-emergence glasshouse herbicide test; conditions: POST Application, 1000 g/h, after 13 days
# [14] = system: Echinochloa crus-galli (ECHCG); assay: Post-emergence glasshouse herbicide test; conditions: POST Application, 1000 g/h, after 13 days
# [15] = system: Ipomoea hederacea (IPOHE); assay: Post-emergence glasshouse herbicide test; conditions: POST Application, 1000 g/h, after 13 days
# [16] = system: Amaranthus retoflexus (AMARE); assay: Pre-emergence glasshouse herbicide test; conditions: PRE Application, 1000 g/h, after 13 days
# [17] = system: Echinochloa crus-galli (ECHCG); assay: Pre-emergence glasshouse herbicide test; conditions: PRE Application, 1000 g/h, after 13 days
# [18] = system: Ipomoea hederacea (IPOHE); assay: Pre-emergence glasshouse herbicide test; conditions: PRE Application, 1000 g/h, after 13 days
# Setaria faberi (SETFA) [19] = assay: Pre-emergence glasshouse herbicide test; conditions: PRE Application, 1000 g/h, after 13 days
# Solanum nigrum (SOLNI) [20] = assay: Pre-emergence glasshouse herbicide test; conditions: PRE Application, 1000 g/h, after 13 days
SMILES,"percentage damage caused to the plant, ALOMY ([1]; applied at 250 g/ha)","percentage damage caused to the plant, SOLNI (Solanum nigrum (SOLNI) [2]; applied at 250 g/ha)","percentage damage caused to the plant, SETFA (Setaria faberi (SETFA) [3]; applied at 250 g/ha)","percentage damage caused to the plant, ALOMY ([4]; applied at 250 g/ha)","percentage damage caused to the plant, AMARE ([5]; applied at 250 g/ha)","percentage damage caused to the plant, ECHCG ([6]; applied at 250 g/ha)","percentage damage caused to the plant, IPOHE ([7]; applied at 250 g/ha)","percentage damage caused to the plant, SOLNI (Solanum nigrum (SOLNI) [8]; applied at 250 g/ha)","percentage damage caused to the plant, AMARE ([9]; applied at 250 g/ha)","percentage damage caused to the plant, SETFA (Setaria faberi (SETFA) [10]; applied at 250 g/ha)","percentage damage caused to the plant, ECHCG ([11]; applied at 250 g/ha)","percentage damage caused to the plant, IPOHE ([12]; applied at 250 g/ha)",also measured
Cn1nnnc1NC(=O)c1nc2ccc(F)cc2n(-c2ccccc2)c1=O [Compound 5.010],1 (1=0-19%),5 (5=80-100%),4 (4=60-79%),1 (1=0-19%),5 (5=80-100%),3 (3=40-59%),5 (5=80-100%),4 (4=60-79%),5 (5=80-100%),1 (1=0-19%),1 (1=0-19%),2 (2=20-39%),
Cn1nnnc1NC(=O)c1nc2ccccc2n(-c2ccoc2)c1=O [Compound 5.013],1 (1=0-19%),5 (5=80-100%),1 (1=0-19%),1 (1=0-19%),5 (5=80-100%),1 (1=0-19%),4 (4=60-79%),5 (5=80-100%),5 (5=80-100%),2 (2=20-39%),2 (2=20-39%),4 (4=60-79%),
Cc1cc(-n2c(=O)c(C(=O)Nc3nnnn3C)nc3ccccc32)ccc1F [Compound 5.028],,,,,,,,,,,,,"percentage damage caused to the plant, ALOMY ([1]; applied at 500 g/ha): 4 (4=60-79%); percentage damage caused to the plant, SOLNI (Solanum nigrum (SOLNI) [2]; applied at 500 g/ha): 5 (5=80-100%); percentage damage caused to the plant, SETFA (Setaria faberi (SETFA) [3]; applied at 500 g/ha): 5 (5=80-100%); percentage damage caused to the plant, ALOMY ([4]; applied at 500 g/ha): 3 (3=40-59%); percentage damage caused to the plant, AMARE ([5]; applied at 500 g/ha): 5 (5=80-100%); percentage damage caused to the plant, ECHCG ([6]; applied at 500 g/ha): 5 (5=80-100%); percentage damage caused to the plant, IPOHE ([7]; applied at 500 g/ha): 5 (5=80-100%); percentage damage caused to the plant, SOLNI (Solanum nigrum (SOLNI) [8]; applied at 500 g/ha): 5 (5=80-100%); percentage damage caused to the plant, AMARE ([9]; applied at 500 g/ha): 5 (5=80-100%); percentage damage caused to the plant, SETFA (Setaria faberi (SETFA) [10]; applied at 500 g/ha): 5 (5=80-100%); percentage damage caused to the plant, ECHCG ([11]; applied at 500 g/ha): 5 (5=80-100%); percentage damage caused to the plant, IPOHE ([12]; applied at 500 g/ha): 5 (5=80-100%)"
Cn1nnnc1NC(=O)c1cc2cc(F)cnc2n(-c2ccccc2)c1=O [Compound 6.001],,,,,,,,,,,,,"percentage damage caused to the plant, ALOMY ([1]; 1000 g/h): 3 (3=40-59%); percentage damage caused to the plant, AMARE [13]: 5 (5=80-100%); percentage damage caused to the plant, ECHCG [14]: 5 (5=80-100%); percentage damage caused to the plant, IPOHE [15]: 5 (5=80-100%); percentage damage caused to the plant, SOLNI (Solanum nigrum (SOLNI) [2]; 1000 g/h): 5 (5=80-100%); percentage damage caused to the plant, SETFA (Setaria faberi (SETFA) [3]; 1000 g/h): 3 (3=40-59%); percentage damage caused to the plant, ALOMY ([4]; 1000 g/h): 1 (1=0-19%); percentage damage caused to the plant, AMARE [16]: 4 (4=60-79%); percentage damage caused to the plant, ECHCG [17]: 3 (3=40-59%); percentage damage caused to the plant, IPOHE [18]: 4 (4=60-79%); percentage damage caused to the plant, SETFA (Setaria faberi (SETFA) [19]): 1 (1=0-19%); percentage damage caused to the plant, SOLNI (Solanum nigrum (SOLNI) [20]): 5 (5=80-100%)"
